Consider five molecules from patent US8916686B2, “TDF-related compounds and analogs thereof” (Thrasos Innovation, Inc., priority 2004, dated 2014).

Assay [1] relates to rat osteosarcoma (17/2.8) cells. The assay is described as follows: Rat osteosarcoma (ROS) cell-based alkaline phosphatase assay. As to conditions: 0.02-200 uM, 2 days; relative to BMP-7 standard. As to the method: BMP interactions with Type I and Type II receptors can induce alkaline phosphatase activity, a marker for osteoblast activity, in ROS cells. An assay procedure as described earlier (Maliakal, J.C., Asahina, I., Hauschka, P. V., and Sampath, T. K. (1994) Growth factors 11, 227-234) was used to determine the biological activities of TDFRP compounds. In a typical experiment, rat osteosarcoma (17/2.8) cells are plated in 96 well plates (3.0×10^4 cells/well) and incubated overnight at 37 C in 5-6% CO2 incubator. The next day, healthy and confluent cells are treated with increasing concentrations of BMP-7 standard (1-10,000 ng/ml) served as positive control or TDFRP compounds (0.02-200 uM) prepared in medium containing 1% FBS and incubated for 2 days at 37 C in 5-6% CO2 incubator. The cellular content of alkaline phosphatase activity is determined by the method of Reddi and Huggins (Reddi, A. H., and Huggins, C. B (1972) Proc. Natl. Acad. Sci. USA 69, 1601-1605). Enzyme estimations are performed in 96 well plates. Following removal of culture medium, cells are washed with pre-warmed PBS (150 ul) and incubated in 100 ul of pre-warmed 1% Triton X-100 for 30 minutes at 37 C. Plates are centrifuged for 10 minutes at full speed, and recovered samples (15 ul) are assayed for enzyme activity by adding 90 ul p-nitrophenyl phosphate (Sigma) as a substrate in 0.05 M glycine-NaOH buffer, pH 9.3 and incubating for 20 minutes at 37 C. The reaction is stopped by adding 75 ul of 0.2 N NaOH/well and absorbance at 405/490 nm is measured on a Dynatech MR 700 plate reader. Results are expressed as relative activities compared to a BMP-7 standard.

The subject of assay [2] is synovial membrane-derived mesenchymal stem cells. The experiment in a line: Chondrogenic differentiation, extracellular matrix deposition by alcian blue staining. Format: cell-based. From the text: Influence of compounds SEQ ID NO 16, 33, 45, 217, 221 on chondrogenic differentiation of synovial membrane-derived mesenchymal stem cells leading to increased extracellular matrix deposition as determined by alcian blue staining. SEQ ID NO:16, 33, 45, 217, and 221 correspond to Compounds E, A, C, B, and D, respectively.
TDFRP compounds can be used to in the prophylaxis or treatment of diseases of the oral cavity, e.g., by affecting direct capping of bioactive molecules, or inducing the formation of reparative dentin and coronal or radicular pulp mineralization (Goldberg et al., Am J. Dent. 2003 February; 16(1):66-76). Further, TDFRP can be used in the prophylaxis or treatment of periodontal disease. […] TDFRP compounds can be used in the prophylaxis or treatment of traumatic brain injury, e.g., stroke, see, e.g., Cairns and Finkelstein, Phys Med Rehabil Clin N Am. 2003 February; 14(1 Suppl):S135-42). Intravenous administration of BMP-7 after ischemia improves motor function in stroke rats (Chang et al., Stroke. 2003 February; 34(2):558-64) and the TDFRP compounds may protect against or repair reperfusion injury. […] Thrasos compounds that bind to ALK3, a type I receptor for BMP, are therefore analyzed to examine if they induce chondrogenic differentiation leading to extra cellular matrix deposition in synovial membrane-derived mesenchymal stem cells. […]

Assay [3] has as its system mouse model of nephrotoxic serum nephritis. As to conditions: cited from earlier work.
The subject of assay [4] is TGF-beta1 induced EMT in epithelial cells. As to conditions: 100 ng/ml for 48 hours; cited from earlier work.
Assay [5] deals with rat after ligation of the coronary artery. The experiment in a line: LAD occlusion model of myocardial injury (ischemia/reperfusion). Format: in vivo. As to conditions: day 7; compound 10 mg/kg i.v., rhmBMP-7 160 μg/kg i.v. The procedure:
The efficacy of compound SEQ ID #45 in ameliorating the effects of myocardial ischemia was investigated in the rat after ligation of the coronary artery. […] unmanipulated rats, sorted into two large groups by initial body weight (>300 g pre-surgery) were evaluated. Fourteen rats underwent surgery on week, 12 rats underwent surgery on week 2 and rats were sorted into 3 treatment groups: Group 1, PBS; Group 2, positive control TDF-1; Group 3, test article SEQ ID #45 (see Table X).
Three days prior to surgery, a serum sample was collected from the tail vein of each rat (pre-bleed). On the day of surgery, each rat was administered compound intravenously 2 hr prior to surgery. Surgery was performed sequentially after intubation and ventilation with 0.5% isofluorane anesthetic. Lead II ECG was monitored throughout the surgery. A thoracotomy was performed and the main left coronary artery was occluded for 20 min using a snare technique (FIG. 16). Successful occlusion of the artery was confirmed by ST elevation in lead II ECG within the first 5 minutes of ligation, and by frequent ventricular arrhythmia after 10 minutes of ligation. The snare was released to restore blood flow. The original suture loop was left in place for subsequent re-occlusion on Day 7. After initiation of reperfusion, the chest cavity was closed with 2 layers of suture. Rats were weaned from the ventilator and observed until fully conscious and mobile. Antibiotic (QD) and analgesic (Q8D) were provided. Additional serum samples were collected 6, 24, 72 and 120 hours post occlusion. Additional compound, positive control or vehicle treatments were delivered by intravenous injection in the tail vein at 24, 72 and 120 hours post occlusion.
On Day 7, each rat was anesthetized (ketamine:xyline), the chest cavity re-opened and a terminal blood sample (1 ml) was withdrawn from the abdominal vein. Gross pathology (i.e. inflammation) was noted and graded on a 4 point inflammation scale: 0=no inflammation, 1=slight, 2=moderate, 3=severe and 4=complete pericarditis. The left coronary artery was then re-occluded using the existing stitch and a concentrated solution of Evans Blue dye in saline (20 mg/ml; 0.5 ml/rat) was injected into the heart apex to stain the non-ischemic cardiac tissue blue. The heart was then arrested by injection of a saturated solution of potassium chloride into the right ventricle. The heart was then excised, wrapped in cellophane and stored at −20° C. for 1.5 hour. The cold heart was cut into 10 cross-sectional slices (2 mm/slice) and each section was numbered and incubated separately in triphenyltetrazolium chloride (1% TTC in PBS) for 10 minutes at 37° C. prior to fixing in 4% formaldehyde. Subsequently, each slice was photographed. For each slice, the “area at risk (AR)” and the “area occupied by necrosis (AN)” were measured by morphometry. The ratio of AN to AR is a measure of the degree of damage resulting from the occlusion (FIG. 17A-FIG. 17B).

In the case of CYFNDSSQVLCKRYRS [SEQ ID NO 221], the “induction of alkaline phosphatase activity” value (“induction” for short) in assay [1] is on record as “did not induce alkaline phosphatase activity”. Besides, the “deposition of the extracellular matrix” value in assay [2] is “significantly increased the deposition of the extracellular matrix”.

For the molecule CYFDDSSKVICKKYRS [SEQ ID NO 130], the “induction” value in assay [1] was “did not induce alkaline phosphatase activity”.

Regarding CIVNSSDDFLCKKYRS [SEQ ID NO 16], in assay [2], the “deposition of the extracellular matrix” value is “significantly increased the deposition of the extracellular matrix”.

For the molecule CYFDDSSQVLCKKYRS [SEQ ID NO 65], the “induction” value in assay [1] was “did not induce alkaline phosphatase activity”.

B1: BMP-7: bone morphogenetic protein-7 (OP-1, TDF-1); mature form of recombinant human BMP-7 used as positive control (protein)
chain: STGSKQRSQNRSKTPKNQEALRMANVAENSSSDQRQACKKHELYVSFRDLGWQDWIIAPEGYAAYYCEGECAFPLNSYMNATNHAIVQTLVHFINPETVPKPCCAPTQLNAISVLYFDDSSNVILKKYRNMVVRACGCH
Consider B1, for which the “progression to chronic renal disease” value in assay [3] (about 300 micrograms/kg, starting after one week of NTN) was “sufficient to prevent progression to chronic renal disease”. In addition, the renal pathology result in assay [3] (treatment from week 3 through week 6 and from week 4 through week 6) is listed as “almost completely reversed renal pathology”. Also, the “reversal of TGF-beta1 induced EMT” value in assay [4] is on record as “reverses TGF-beta1 induced EMT”. Also, the “reduction in AN/AR ratio as compared to PBS-treated animals” value in assay [5] was determined as 7%.
